# Results from patent publication US20220017572A1, “GEMINOID LIPOPEPTIDE COMPOUNDS AND THEIR USES” (Erasmus University Medical Center Rotterdam, priority 2016, published 2022).
# Residues, ends and D or L forms follow the SMILES beside them.
# Columns and labels:
# trypsin = biological target: T1, trypsin (Bos taurus, UniProt P00760); assay: Trypsin inhibition, fluorimetric enzyme assay; assay type: biochemical
# T1 construct: gene PRSS1
# T1 sequence (P00760 24-246): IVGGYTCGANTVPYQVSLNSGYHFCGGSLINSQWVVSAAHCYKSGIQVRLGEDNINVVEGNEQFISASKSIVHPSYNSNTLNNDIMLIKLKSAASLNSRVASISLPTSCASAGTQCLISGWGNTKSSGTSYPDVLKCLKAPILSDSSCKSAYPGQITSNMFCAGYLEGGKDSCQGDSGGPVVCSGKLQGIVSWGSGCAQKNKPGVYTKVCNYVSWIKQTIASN
# Procedure: (§1) The enzyme was dissolved in 1 mL MES buffer (10 mM), 1 mM CaCl2, pH 7.0 at 36.5° C. Substrate was added in a concentration 10 times the Km, and the inhibitor compounds of type C (C16-KGnK-C16, C16-KAnK-C16, and C16-RAnR-C16) were added in increasing concentrations (1.0, 5.0, 10.0, 20.0, 40.0 μL) from a stock solution of 2 mg in 1 mL DMSO. The residual activity was measured in a Hitachi F2500 spectrofluorimeter, and plots were fitted using the Grafit® software (Erithracus Software, Horley, Surrey, UK). All the assays were calculated by the Morrison equation for competitive inhibition (eq. 1, [Morrison, 1969]). The amount of substrate used for the tight binding titration experiments follow all the requirements, where [S]<<Km for all enzymes, so the Kiapp=Ki.
# (§2) The first group of gemini-like peptide amphiphiles to be screened was that of C16-K(G or A)nK-C16 (compound type C, with R1=n-C15H31, R2=n-C16H33). […] The results of the Ki determination for trypsin, dengue 2 protease, and human furin are given in Table 1A; some general data for the inhibition by this type of compounds are given in Table 1B. For most compounds in Table 1 the Ki could be derived from competitive inhibition experiments. Judging from the Ki values with the relatively simple substrate Z-RR-MCA, the best inhibitors for dengue 2 protease contain alanine (A) rather than glycine (G).
# dengue 2 protease [1] = biological target: T2, dengue 2 protease (Dengue virus type 2, UniProt P14340); assay: Dengue 2 protease inhibition, hydrolysis of Z-RR-MCA; assay type: biochemical, dengue 2 virus; design: Activity with inhibitors: unit not given here; conditions: for activity at 5 µM: 5 μM inhibitor; for activity at 10 µM: 10 μM inhibitor; for activity at 15 µM: 15 μM inhibitor; for activity at 40 µM: 40 μM inhibitor
# T2 construct: The active site of the dengue protease is in the N-terminal part of NS3
# human furin = human furin (Homo sapiens, UniProt P09958); assay: Human furin inhibition, hydrolysis of Ac-RVRR-MCA; assay type: biochemical; conditions: for activity at 5 µM: 5 μM inhibitor; for activity at 10 µM: 10 μM inhibitor; for activity at 15 µM: 15 μM inhibitor; for activity at 40 µM: 40 μM inhibitor
# Procedure: as §1
# However, for furin we used a correction of Ki app, where [S]˜Km (eq. 2).
# Range of Proteases Inhibited by Geminoids, Determination of Ki with Z-RR-MCA (Dengue 2 Protease) and Ac-RVRR-MCA (Furin) (SEQ ID NO:60).
# thrombin = thrombin (Homo sapiens, UniProt P00734); assay: Thrombin inhibition, fluorimetric enzyme assay; assay type: biochemical; conditions: 36.5° C., read-out: Residual Activity (%) Thrombin
# Procedure: as §1, with “Kiapp=Ki. […]” for “Kiapp=Ki.”
# plasmin = plasmin (Homo sapiens, UniProt P00747); assay: Plasmin inhibition, fluorimetric enzyme assay; assay type: biochemical; conditions: 36.5° C., read-out: Residual Activity (%) Plasmin
# Procedure: as §1, §2
# dengue 2 protease [2] = biological target: T2, dengue 2 protease; assay: Dengue 2 protease inhibition in presence of Triton X-100 (detergent test, Nature Protocol); assay type: biochemical, dengue 2 virus; conditions: 0.05% Triton X-100; for Activity with 0.05% Triton: initial activity in UAF/min
# Description: A further investigation of the interactions of the geminoid inhibitors with biological membranes and with membrane-bound proteases is needed. […] The preparation and tests of peptides symmetrically, asymmetrically and singly alkylated with saturated, short (C6), and unsaturated (C18:1) alkyl tails are in progress.
# DENV2 protease replicon = DENV2 protease replicon assay; assay type: cell-based; conditions: lowest concentration with observed activity in replicon assay
# DENV2 protease = biological target: T3, DENV2 protease (Dengue virus type 2, UniProt P14340); assay: DENV2 protease biochemical assay; conditions: 50 μM inhibitor
# T3 construct: The active site of the dengue protease is in the N-terminal part of NS3
# T3 sequence (P14340 1476-1653): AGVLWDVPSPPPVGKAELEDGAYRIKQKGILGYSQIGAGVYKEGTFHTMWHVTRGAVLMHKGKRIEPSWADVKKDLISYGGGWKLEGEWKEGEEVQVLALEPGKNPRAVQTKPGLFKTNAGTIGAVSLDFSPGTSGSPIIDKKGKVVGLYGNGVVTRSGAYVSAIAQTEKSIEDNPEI
# T3 sequence (P14340 1398-1437): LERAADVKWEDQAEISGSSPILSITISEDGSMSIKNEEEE
# Sequence of human furin (P09958 108-794): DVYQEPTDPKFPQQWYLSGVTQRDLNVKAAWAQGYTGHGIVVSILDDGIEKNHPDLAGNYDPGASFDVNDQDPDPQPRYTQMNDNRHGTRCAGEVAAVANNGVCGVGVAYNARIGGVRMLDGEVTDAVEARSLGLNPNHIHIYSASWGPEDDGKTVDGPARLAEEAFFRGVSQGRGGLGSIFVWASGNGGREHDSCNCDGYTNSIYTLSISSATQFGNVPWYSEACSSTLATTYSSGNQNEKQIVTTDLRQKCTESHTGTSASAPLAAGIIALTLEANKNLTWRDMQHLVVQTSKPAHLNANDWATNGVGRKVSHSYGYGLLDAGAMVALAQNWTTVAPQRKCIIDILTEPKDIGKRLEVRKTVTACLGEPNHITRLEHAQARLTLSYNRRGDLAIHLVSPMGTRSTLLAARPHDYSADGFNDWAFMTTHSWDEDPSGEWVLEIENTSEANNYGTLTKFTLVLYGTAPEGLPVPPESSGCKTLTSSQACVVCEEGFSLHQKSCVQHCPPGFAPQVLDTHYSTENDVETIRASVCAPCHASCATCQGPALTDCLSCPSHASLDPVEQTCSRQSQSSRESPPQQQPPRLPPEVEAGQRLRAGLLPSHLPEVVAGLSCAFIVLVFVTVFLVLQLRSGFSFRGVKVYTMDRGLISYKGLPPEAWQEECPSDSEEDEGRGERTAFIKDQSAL
# T2 sequence (P14340 1476-1653): as the sequence (P14340 1476-1653) above
# Sequence of plasmin (P00747 581-810 limits assumed, species assumed): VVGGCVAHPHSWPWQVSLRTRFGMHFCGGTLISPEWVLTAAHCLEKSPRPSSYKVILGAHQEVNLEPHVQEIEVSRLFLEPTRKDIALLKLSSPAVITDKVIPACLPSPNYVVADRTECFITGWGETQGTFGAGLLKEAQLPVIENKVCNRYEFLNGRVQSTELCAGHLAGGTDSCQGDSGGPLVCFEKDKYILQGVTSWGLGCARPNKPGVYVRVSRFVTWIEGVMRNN
# Sequence of plasmin (P00747 97-580 partner limits assumed, species assumed): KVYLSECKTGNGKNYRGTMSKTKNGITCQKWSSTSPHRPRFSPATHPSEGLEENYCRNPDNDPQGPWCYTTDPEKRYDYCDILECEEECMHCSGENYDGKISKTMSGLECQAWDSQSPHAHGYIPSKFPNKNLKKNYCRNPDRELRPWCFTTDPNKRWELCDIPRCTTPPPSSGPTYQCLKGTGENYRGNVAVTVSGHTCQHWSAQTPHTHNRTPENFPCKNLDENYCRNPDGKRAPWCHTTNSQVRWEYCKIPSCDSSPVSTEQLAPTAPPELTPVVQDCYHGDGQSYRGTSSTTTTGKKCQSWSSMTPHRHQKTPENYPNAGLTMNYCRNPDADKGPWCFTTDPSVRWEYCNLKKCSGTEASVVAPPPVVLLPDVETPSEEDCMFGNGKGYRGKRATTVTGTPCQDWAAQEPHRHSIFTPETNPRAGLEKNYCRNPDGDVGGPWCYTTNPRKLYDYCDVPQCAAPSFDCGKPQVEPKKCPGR
compound,measurement,setting,value
CCCCCCCCCCCCCCCCNC(=O)[C@H](CCCCN)NC(=O)[C@H](C)NC(=O)[C@H](CCCCN)NC(=O)CCCCCCCCCCCCCCC [C16-KAK-C16],Ki,trypsin,15.2 µM
same,remaining activity at 15 µM,"trypsin; 15 μM inhibitor, 36.5° C., read-out: Residual Activity (%) Trypsin",68%
same,remaining activity at 40 µM,"trypsin; 40 μM inhibitor, 36.5° C., read-out: Residual Activity (%) Trypsin",35%
same,remaining activity at 80 µM,"trypsin; 80 μM inhibitor, 36.5° C., read-out: Residual Activity (%) Trypsin",21%
same,Ki,dengue 2 protease [1],0.37 µM
same,activity at 2.5 µM,"dengue 2 protease [1]; 2.5 μM inhibitor, 36.5° C.",87%
same,activity at 5 µM,dengue 2 protease [1]; 36.5° C.,66%
same,activity at 10 µM,dengue 2 protease [1]; 36.5° C.,26%
same,activity at 15 µM,dengue 2 protease [1]; 36.5° C.,15%
same,activity at 40 µM,dengue 2 protease [1]; 36.5° C.,6%
same,activity at 2.5 µM,"human furin; 2.5 μM inhibitor, 36.5° C.",43%
same,activity at 5 µM,human furin; 36.5° C.,30%
same,activity at 10 µM,human furin; 36.5° C.,10%
same,activity at 15 µM,human furin; 36.5° C.,0%
same,activity at 40 µM,human furin; 36.5° C.,0%
same,Ki,"human furin; 10 mM Mes.NaOH, pH 7.0, 2.35 μM Ac-RVRR-MCA, 37° C., read-out: Ki hFurin",0.54 µM
same,remaining activity at 15 µM,thrombin; 15 μM inhibitor,80%
same,remaining activity at 40 µM,thrombin; 40 μM inhibitor,64%
same,remaining activity at 80 µM,thrombin; 80 μM inhibitor,42%
same,remaining activity at 15 µM,plasmin; 15 μM inhibitor,62%
same,remaining activity at 40 µM,plasmin; 40 μM inhibitor,20%
same,remaining activity at 80 µM,plasmin; 80 μM inhibitor,3%
same,% recovery in presence of Triton,dengue 2 protease [2]; 30 μM of inhibitor,41%
same,Activity with 0.05% Triton,dengue 2 protease [2]; 30 μM of inhibitor,91
same,Replicon activity [μM] (1),DENV2 protease replicon,0.3 µM
same,inhibition at 50 µM,DENV2 protease,106%
"CCCCCCCCCCCCCCCCNC(=O)[C@H](CCCCN)NC(=O)CNC(=O)CNC(=O)[C@H](CCCCN)NC(=O)CCCCCCCCCCCCCCC [C16-KGGK-C16, C15H31CO-KGGK-NH—C16H33] (HELM PEPTIDE1{[CCCCCCCCCCCCCCCC(=O)[*:2]].K.G.G.K.[CCCCCCCCCCCCCCCCN[*:1]]}$$$$V2.0)",remaining activity at 18 µM,"trypsin; 18 μM inhibitor, 36.5° C., read-out: Residual Activity (%) Trypsin",79%
same,remaining activity at 55 µM,"trypsin; 55 μM inhibitor, 36.5° C., read-out: Residual Activity (%) Trypsin",45%
same,remaining activity at 85 µM,"trypsin; 85 μM inhibitor, 36.5° C., read-out: Residual Activity (%) Trypsin",24%
same,Ki,dengue 2 protease [1],5.75 µM
same,activity at 5 µM,dengue 2 protease [1]; 36.5° C.,88%
same,activity at 10 µM,dengue 2 protease [1]; 36.5° C.,84%
same,Activity with inhibitors,"dengue 2 protease [1]; 10 μM of inhibitor, 10 μM Z-RR-MCA, pH 9.0, 37° C., initial activity in UAF/min",10
same,activity at 15 µM,dengue 2 protease [1]; 36.5° C.,76%
same,activity at 20 µM,"dengue 2 protease [1]; 20 μM inhibitor, 36.5° C.",70%
same,activity at 40 µM,dengue 2 protease [1]; 36.5° C.,64%
same,activity at 5 µM,human furin; 36.5° C.,94%
same,activity at 10 µM,human furin; 36.5° C.,85%
same,activity at 15 µM,human furin; 36.5° C.,76%
same,activity at 20 µM,"human furin; 20 μM inhibitor, 36.5° C.",67%
same,activity at 40 µM,human furin; 36.5° C.,3%
same,remaining activity at 18 µM,thrombin; 18 μM inhibitor,78%
same,remaining activity at 55 µM,thrombin; 55 μM inhibitor,46%
same,remaining activity at 85 µM,thrombin; 85 μM inhibitor,33%
same,remaining activity at 18 µM,plasmin; 18 μM inhibitor,30%
same,remaining activity at 55 µM,plasmin; 55 μM inhibitor,11%
same,remaining activity at 85 µM,plasmin; 85 μM inhibitor,4%
same,% recovery in presence of Triton,dengue 2 protease [2]; 10 μM of inhibitor,73%
same,Activity with 0.05% Triton,dengue 2 protease [2]; 10 μM of inhibitor,160
same,Replicon activity [μM] (1),DENV2 protease replicon,0.3 µM
same,inhibition at 50 µM,DENV2 protease,104%
